From ChEMBL document CHEMBL1140351, “Design and synthesis of depeptidized macrocyclic inhibitors of hepatitis C NS3-4A protease using structure-based drug design” (J Med Chem, 2005) come the findings set out here.

The structures appear in SMILES notation.

The target in test [1] is T1, NS3 (Hepatitis C virus, UniProt A3EZJ3). Kind of test: Ability to inhibit the hydrolysis of chromogenic 4-phenylazophenyl ester from the peptide fragment Ac- DTEDVVP(Nva)-O-4-PAP in a HCV protease continuous assay. More on the design: species or system Hepacivirus hominis.
T1 sequence (A3EZJ3 whole entry, the tested form may be a part): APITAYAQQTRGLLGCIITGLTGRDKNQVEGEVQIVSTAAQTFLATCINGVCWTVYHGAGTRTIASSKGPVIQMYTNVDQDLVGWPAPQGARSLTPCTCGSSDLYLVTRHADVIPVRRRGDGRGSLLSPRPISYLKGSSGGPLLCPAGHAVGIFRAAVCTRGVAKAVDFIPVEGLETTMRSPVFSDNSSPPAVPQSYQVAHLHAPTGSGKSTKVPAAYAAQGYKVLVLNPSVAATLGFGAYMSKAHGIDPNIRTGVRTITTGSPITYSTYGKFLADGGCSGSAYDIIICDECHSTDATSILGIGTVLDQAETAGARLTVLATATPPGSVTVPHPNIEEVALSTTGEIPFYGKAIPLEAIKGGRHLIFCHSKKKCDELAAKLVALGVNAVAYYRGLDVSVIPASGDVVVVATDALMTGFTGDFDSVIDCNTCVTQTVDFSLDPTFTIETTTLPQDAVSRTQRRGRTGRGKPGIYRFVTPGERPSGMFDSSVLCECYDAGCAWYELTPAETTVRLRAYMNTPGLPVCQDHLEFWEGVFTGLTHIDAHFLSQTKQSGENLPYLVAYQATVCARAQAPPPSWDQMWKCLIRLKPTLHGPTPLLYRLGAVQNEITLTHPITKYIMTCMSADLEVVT
Test [2] concerns the target T1, NS3. Nature of the test: Ability to inhibit the hydrolysis of chromogenic […] ester from the peptide fragment Ac- DTEDVVP(Nva)-O-4-PAP in a HCV protease continuous assay. The arrangement: species or system Hepacivirus hominis.
In a further test the target is T2, Neutrophil elastase (Homo sapiens, UniProt P08246).
T2 sequence (P08246 whole entry): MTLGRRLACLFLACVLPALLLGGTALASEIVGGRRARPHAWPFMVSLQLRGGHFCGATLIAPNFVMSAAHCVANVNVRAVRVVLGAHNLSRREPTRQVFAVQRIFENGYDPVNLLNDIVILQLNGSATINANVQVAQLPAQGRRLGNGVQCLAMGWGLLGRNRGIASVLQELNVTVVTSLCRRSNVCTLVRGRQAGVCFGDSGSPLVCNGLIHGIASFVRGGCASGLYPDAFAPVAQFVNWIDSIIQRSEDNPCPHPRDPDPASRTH
Kind of test: Binding constant towards Human neutrophil elastase HNE protease.

As for `CCC[C@H](NC(=O)[C@@H]1Cc2cccc(c2)Oc2ccc(cc2)C[C@H](NC(C)=O)C(=O)N[C@@H](C2CCCCC2)C(=O)N1)C(=O)C(=O)NCC(=O)N[C@H](C(=O)O)c1ccccc1`, at NS3 [1], the affinity corresponds to a Ki of 800 nM.
Take `CCC[C@H](NC(=O)[C@@H]1Cc2cccc(c2)Oc2ccc(cc2)CCCC(=O)N[C@@H](C2CCCCC2)C(=O)N1)C(=O)C(=O)NCC(=O)N[C@H](C(=O)O)c1ccccc1`: on NS3 [1], the affinity, expressed as Ki, was 300 nM.
`CCC[C@H](NC(=O)[C@@H]1Cc2cccc(c2)Oc2ccc(cc2)C[C@H](NC(=O)OC(C)(C)C)C(=O)N[C@@H](C2CCCCC2)C(=O)N1)C(=O)C(=O)NCC(=O)O`: on NS3 [1], the Ki (in general, the equilibrium dissociation constant of an inhibitor or competing ligand from its target) was 12000 nM.
In turn, `CCC[C@H](NC(=O)[C@@H]1Cc2cccc(c2)Oc2ccc(cc2)C[C@H](NC(=O)OC(C)(C)C)C(=O)N[C@@H](C2CCCCC2)C(=O)N1)C(=O)C(=O)NCC(=O)N[C@H](C(=O)O)c1ccccc1` showed a Ki at NS3 [1] of 7800 nM.
As for `CCC[C@H](NC(=O)[C@@H]1Cc2cccc(c2)Oc2ccc(cc2)CCCCC(=O)N[C@@H](C2CCCCC2)C(=O)N1)C(=O)C(=O)NCC(=O)N[C@H](C(=O)O)c1ccccc1`, the Ki on NS3 [2] is 300 nM; on NS3 [1], 160 nM.
In the case of `CCC[C@H](NC(=O)[C@@H]1Cc2cccc(c2)Oc2ccc(cc2)CCC(=O)N[C@@H](C2CCCCC2)C(=O)N1)C(=O)C(=O)NCC(=O)N[C@H](C(=O)O)c1ccccc1`, the Ki was found to be 2900 nM on Neutrophil elastase and 110 nM on NS3 [1].
